Results published in article PMC9169098 (Proceedings of the National Academy of Sciences of the …, 2022).
Numbering of substitutions follows the chain as printed. Numbers in names are those of the source. One block for each molecule: values may come before it.

What was measured:
[1] = target: T1, BceAB (ATPase sites of BceA) (Bacillus subtilis, UniProt O34697); assay: colorimetric phosphate-release ATPase assay; type: biochemical; conditions: ATP substrate, 4 mM MgCl2, 37 °C, inhibitor
T1 sequence (O34697 1-253 limits assumed): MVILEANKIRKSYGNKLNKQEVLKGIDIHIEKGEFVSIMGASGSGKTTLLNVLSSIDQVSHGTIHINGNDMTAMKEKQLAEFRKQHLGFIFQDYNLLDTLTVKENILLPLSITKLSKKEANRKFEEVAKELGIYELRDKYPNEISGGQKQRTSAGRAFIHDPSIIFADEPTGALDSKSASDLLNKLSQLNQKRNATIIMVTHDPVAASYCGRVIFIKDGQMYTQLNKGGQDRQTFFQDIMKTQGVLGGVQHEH
T1 sequence (O34741 1-646 partner): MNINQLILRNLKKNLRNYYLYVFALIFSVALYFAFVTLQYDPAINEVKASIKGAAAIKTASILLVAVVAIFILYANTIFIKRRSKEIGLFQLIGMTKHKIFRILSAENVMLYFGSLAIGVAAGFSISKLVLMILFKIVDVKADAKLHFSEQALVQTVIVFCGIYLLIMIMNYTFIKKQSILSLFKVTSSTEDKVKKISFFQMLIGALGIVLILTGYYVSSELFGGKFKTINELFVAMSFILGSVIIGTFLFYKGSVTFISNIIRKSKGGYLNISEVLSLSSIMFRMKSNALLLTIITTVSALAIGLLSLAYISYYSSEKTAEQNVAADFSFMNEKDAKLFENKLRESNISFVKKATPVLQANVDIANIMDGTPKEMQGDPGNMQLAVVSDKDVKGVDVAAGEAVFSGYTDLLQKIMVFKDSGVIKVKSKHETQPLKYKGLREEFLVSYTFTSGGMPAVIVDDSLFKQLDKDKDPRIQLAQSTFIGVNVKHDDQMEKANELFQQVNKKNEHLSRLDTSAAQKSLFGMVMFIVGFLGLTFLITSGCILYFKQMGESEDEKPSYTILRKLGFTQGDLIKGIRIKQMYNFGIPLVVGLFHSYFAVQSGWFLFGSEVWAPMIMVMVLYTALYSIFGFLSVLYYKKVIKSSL

BceB = target: T2, BceB (B. subtilis, UniProt O34741 1-646); assay: cryo-EM structure
T2 sequence (looked up): T1 sequence (O34741 1-646 partner)

cryo-EM structure = target: the molecule itself; assay: cryo-EM structure

Molecule: Nc1ncnc2c1ncn2[C@@H]1O[C@H](COP(=O)(O)OP(=O)(O)OP(O)(O)=S)[C@@H](O)[C@H]1O [ATPγS]
- colorimetric phosphate-release ATPase assay ([1]; substrate analog): potently inhibited by common ATPase inhibitors such as the substrate analog ATP? S

Molecule: [O]=[V]([OH])([OH])[OH] [sodium ortho-vanadate]
- colorimetric phosphate-release ATPase assay [1]: potently inhibited by common ATPase inhibitors such as the substrate analog ATP? S or sodium ortho-vanadate

- stoichiometry N (BceB): 2 BceA per BceB
B1: BceA (natural protein, B. subtilis, UniProt O34697 1-253, looked up)
chain: T1 sequence (O34697 1-253 limits assumed)

B2: BceA E169Q variant (natural protein, B. subtilis, UniProt O34697 1-253, looked up)
chain: T1 sequence (O34697 1-253 limits assumed) with E169Q
- stoichiometry N (cryo-EM structure): 2
